Laboratory results published in patent US4016159A, “Acylamino-cephem-carboxylic acids containing an amidino or guanidino group in the molecule” (Hoechst Aktiengesellschaft, priority 1973, dated 1977).
Converted amounts (≈) assume the structure as drawn.

How the values were obtained:
Assay type in all cases: cell-based
[1] = system: Streptococcus pyogenes A; assay: Minimum inhibition concentration (MIC), Table 3; conditions: Germ: Streptococcus pyogenes A; read-out: Minimum inhibition concentration MIC
Description: Minimum inhibition concentration MIC in γ/ml
Germ: Streptococcus pyogenes A

[2] = system: Staphylococcus aureus SG 511; assay: Minimum inhibition concentration (MIC), Table 5; conditions: Staphylococcus aureus, SG511, Germ: Staphylococcus aureus SG 511; read-out: Minimum inhibition concentration (MIC)
Description: (§1) Minimum inhibition concentration (MIC) in γ/ml
Germ: Staphylococcus aureus SG 511

[3] = system: Staphylococcus aureus 285; assay: Minimum inhibition concentration (MIC), Table 1; conditions: for MIC: Staphylococcus aureus, 285, Germ: Staphylococcus aureus 285, read-out: Minimum inhibition concentration (MIC)
Description: as §1
Germ: Staphylococcus aureus 285

[4] = system: Streptococcus D; assay: Minimum inhibition concentration (MIC), Table 4; conditions: Germ: Streptococcus D; for MIC: Streptococcus, read-out: Minimum inhibition concentration (MIC)
Description: as §1

Structure (SMILES)	MIC [1] [µg/mL]	MIC [2] [µg/mL]	MIC [3] [µg/mL]	MIC [4] [µg/mL]	Minimum inhibition concentration (MIC) ([3]; Germ: Staphylococcus aureus 285) [µg/mL]	Minimum inhibition concentration (MIC) [4] [µg/mL]
Cc1nnc(SCC2=C(C(=O)O)N3C(=O)C(NC(=O)COc4ccc(C5=NCCCN5)cc4)C3SC2)s1 (stereo not drawn) [Example 34, 3-[(5-methyl-1,3,4-thiadizole-2-yl)-thiomethyl]-7-[4-(1,4,5,6-tetrahydropyromide-2-yl)-phenoxyacetamido]-Δ 3-cephem-4-carboxylic acid]	0.008 to 0.0156 (≈ 0.0143 to 0.0278 µM)	0.0625 to 0.078 (≈ 0.111 to 0.139 µM)	0.5 to 1.25 (≈ 0.892 to 2.23 µM)	0.196 to 6.25 (≈ 0.35 to 11.1 µM)		
Cc1nnc(SCC2=C(C(=O)O)N3C(=O)C(NC(=O)COc4ccc(C(=N)N)cc4)C3SC2)o1 (stereo not drawn) [Example 38, 3-[(5-methyl-1,3,4-oxadiazole-2-yl)-thiomethyl]-7-(4-amidinophenoxy-acetamido)-Δ 3-cephem-4-carboxylic acid]	0.008 to 0.0156 (≈ 0.0159 to 0.0309 µM)	0.0625 to 0.078 (≈ 0.124 to 0.155 µM)	0.156 to 0.391 (≈ 0.309 to 0.775 µM)	10 to 50 (≈ 19.8 to 99.1 µM)		
N=C(N)c1ccc(OCC(=O)NC2C(=O)N3C(C(=O)O)=C(CSc4nnc(-c5ccccc5)o4)CSC23)cc1 (stereo not drawn) [Example 28, 3-[(5-5-phenyl-1,3,4-oxadiazole-2-yl)-thiomethyl]-7-(4-amidino-phenoxyacetamido)-Δ 3-cephem-4-carboxylic acid]	0.000391 to 0.0078 (≈ 0.00069 to 0.0138 µM)	0.0196 to 0.0391 (≈ 0.0346 to 0.069 µM)			0.156 to 0.391	10 to 50
CCCc1nnc(SCC2=C(C(=O)O)N3C(=O)C(NC(=O)COc4ccc(C(=N)N)cc4)C3SC2)s1 (stereo not drawn) [Example 68, 3-[(5-n-propyl-1,3,4-thiadiazole-2-yl)-thiomethyl]-7-(4-amidinophenoxyacetamido)-Δ 3-cephem-4-carboxylic acid]	0.008 to 0.0156 (≈ 0.0146 to 0.0284 µM)	0.0625 to 0.078 (≈ 0.114 to 0.142 µM)	0.5 to 1.25 (≈ 0.911 to 2.28 µM)	10 to 50 (≈ 18.2 to 91.1 µM)		
N=C(N)c1ccc(OCC(=O)NC2C(=O)N3C(C(=O)O)=C(CSc4nc(-c5ccccc5)cs4)CSC23)cc1 (stereo not drawn) [Example 27, 3-[(4-phenyl-1,3-thiazole-2-yl)-thiomethyl]-7-(4-amidinophenoxy-acetamido)-Δ 3-cephem-4-carboxylic acid]	0.000391 to 0.0078 (≈ 0.000672 to 0.0134 µM)	0.0625 to 0.078 (≈ 0.107 to 0.134 µM)	0.5 to 1.25 (≈ 0.86 to 2.15 µM)	10 to 50 (≈ 17.2 to 86 µM)		
O=C(COc1ccc(C2=NCCCN2)cc1)NC1C(=O)N2C(C(=O)O)=C(CSc3nncs3)CSC12 (stereo not drawn) [Example 62]	0.008 to 0.0156 (≈ 0.0146 to 0.0285 µM)	0.0625 to 0.078 (≈ 0.114 to 0.143 µM)	0.5 to 1.25 (≈ 0.915 to 2.29 µM)	10 to 50 (≈ 18.3 to 91.5 µM)		
N=C(N)c1ccc(CC(=O)NC2C(=O)N3C(C(=O)O)=C(CSc4nnc(-c5ccccc5)s4)CSC23)cc1 (stereo not drawn) [Example 57, 3-[(5-phenyl-1,3,4-thiadiazole-2-yl)-thiomethyl]-7-(4-amidinophenylacetamido)-Δ3-cephem-4-carboxylic acid]	0.000391 to 0.0078 (≈ 0.00069 to 0.0138 µM)	0.0196 to 0.0391 (≈ 0.0346 to 0.069 µM)	0.156 to 0.391 (≈ 0.275 to 0.69 µM)	10 to 50 (≈ 17.6 to 88.2 µM)		

The next lines start with the values.

MIC [1] [µg/mL]	MIC [2] [µg/mL]	MIC [3] [µg/mL]	MIC [4] [µg/mL]	Minimum inhibition concentration (MIC) ([3]; Germ: Staphylococcus aureus 285) [µg/mL]	Minimum inhibition concentration (MIC) [4] [µg/mL]	Structure (SMILES)
0.000391 to 0.0078 (≈ 0.000678 to 0.0135 µM)	0.0625 to 0.078 (≈ 0.108 to 0.135 µM)	0.5 to 1.25 (≈ 0.867 to 2.17 µM)	10 to 50 (≈ 17.3 to 86.7 µM)			O=C(Cc1ccc(C2=NCCN2)cc1)NC1C(=O)N2C(C(=O)O)=C(CSc3nnc(-c4ccccc4)o3)CSC12 (stereo not drawn) [Example 116, 3-[(5-phenyl-1,3,4-oxadiazole-2-yl)-thiomethyl]-7-[4-(imidazoline-2-yl)-phenylacetamido]-Δ3-cephem-4-carboxylic acid]
0.000391 to 0.0078 (≈ 0.000662 to 0.0132 µM)	0.0625 to 0.078 (≈ 0.106 to 0.132 µM)	0.5 to 1.25 (≈ 0.846 to 2.12 µM)	10 to 50 (≈ 16.9 to 84.6 µM)			O=C(Cc1ccc(C2=NCCCN2)cc1)NC1C(=O)N2C(C(=O)O)=C(CSc3nnnn3-c3ccccc3)CSC12 (stereo not drawn) [Example 71, 3-[(1-phenyl-1-H-tetrazole-5-yl)-thiomethyl]-7-[4-(1,4,5,6-tetrahydropyrimide-2-yl)-phenyl-acetamido]-Δ 3-cephem-4-carboxylic acid]
0.000391 to 0.0078 (≈ 0.000674 to 0.0135 µM)	0.0625 to 0.078 (≈ 0.108 to 0.135 µM)	0.156 to 0.391 (≈ 0.269 to 0.674 µM)	10 to 50 (≈ 17.2 to 86.2 µM)			O=C(Cc1ccc(C2=NCCCN2)cc1)NC1C(=O)N2C(C(=O)O)=C(CSc3nc4ccccc4s3)CSC12 (stereo not drawn) [Example 85, 3-[benzothiazole-2-yl-thiomethyl]-7-[4-(1,4,5,6-tetrahydropyrimide-2-yl)-phenylacetamido]-Δ 3-cephem-4-carboxylic acid]
0.000391 to 0.0078 (≈ 0.000701 to 0.014 µM)	0.0625 to 0.078 (≈ 0.112 to 0.14 µM)	0.156 to 0.391 (≈ 0.28 to 0.701 µM)	0.196 to 6.25 (≈ 0.351 to 11.2 µM)			CCCc1csc(SCC2=C(C(=O)O)N3C(=O)C(NC(=O)Cc4ccc(C5=NCCN5)cc4)C3SC2)n1 (stereo not drawn) [Example 114, 3-[(4-n-propyl-thiazole-2-yl)-thiomethyl]-7-[4-(imidazoline-2-yl)-phenylacetamido]-Δ3-cephem-4-carboxylic acid]
0.000391 to 0.0078 (≈ 0.000604 to 0.012 µM)	0.0196 to 0.0391 (≈ 0.0303 to 0.0604 µM)	0.156 to 0.391 (≈ 0.241 to 0.604 µM)	10 to 50 (≈ 15.4 to 77.2 µM)			CSc1nc(SCC2=C(C(=O)O)N3C(=O)C(NC(=O)Cc4ccc(C5=NCCCN5)cc4)C3SC2)nc(-c2ccccc2)n1 (stereo not drawn) [Example 69, 3-[(4-methylmercapto-6-phenyl-1,3,5-triazine-2-yl)-thiomethyl]-7-[4-(1,4,5,6-tetrahydropyrimide-2-yl)-phenyl-acetamido]-Δ 3-cephem-4-carboxylicacid]
